Assay [1] has as its target Human MET (residues 956-1390) (Homo sapiens (Human), UniProt P08581). As to the kind of experiment: Human Met kinase assay, HTRF KinEase (Example D-2). Format: biochemical. As to conditions: protocol of Example D-2 (other compounds); read-out: c-Met IC50. The method in brief: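 IC50 values come from a 4-parameter logistic fit of the […] fluorescence ratio, set between DMSO (100%) and reference compound at 1 μM (0%). Reactions held MET 956-1390 at 0.1 ng/well, ATP at Km, biotinylated peptide, 5 mM MgCl2, 1 mM MnCl2, 1 mM DTT and 3% DMSO, and ran 40 min at room temperature before streptavidin-XL665/Eu-antibody detection.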
On the technique in general: In TR-FRET formats the signal depends on donor and acceptor labels being close together.

Assay [2] has as its target Mer (phospho-Mer, MERTK-transfected 293A cells) (Homo sapiens (Human), UniProt Q12866). As to the kind of experiment: Mer autophosphorylation ELISA in transient transfected 293A cells (Example H). The class given is cell-based. To be noted: cellular activity; Mer autophosphorylation ELISA in transient transfected 293A cells. In short, it runs like this:
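IC50 from 4-parameter logistic fit of phospho-Mer levels, quantified by ELISA against a phospho-Mer standard in lysates of MERTK-transfected 293A cells. Cells exposed 1 h to 8-point serial dilutions, serum-free, 0.3% DMSO; controls: DMSO (100%) and reference inhibitor (0%).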
On the technique in general: An ELISA detects its analyte on a solid surface through an enzyme-linked reagent.

Assay [3] concerns the target KDR (phospho-KDR, VEGF165-stimulated HUVEC cells) (Homo sapiens (Human), UniProt P35968). Nature of the assay: KDR autophosphorylation ELISA in HUVEC cells (Example G). Format: cell-based. To be noted: cellular activity; KDR autophosphorylation ELISA in HUVEC cells. The method in brief:
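Read-out: phospho-KDR in cell lysates by DuoSet IC ELISA, normalised between VEGF-stimulated DMSO wells (100%) and unstimulated wells (0%). Human endothelial cells were starved overnight in serum-free medium, exposed to compound for 1 h, and then pulsed with 100 ng/mL VEGF165 for 5 min.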

Assay [4] addresses Human KDR (residues 790-1356) (Homo sapiens (Human), UniProt P35968). As to the kind of experiment: Human KDR kinase assay, HTRF KinEase (Example B-2). The class given is biochemical. As to conditions: protocol of Example B-2 (other compounds). The method in brief:
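Ten compound concentrations (3% DMSO final) were pre-plated, then KDR (790-1356) with biotinylated peptide in Mg/Mn/DTT buffer was added; ATP at Km (4.0 μM) started a 40 min room-temperature reaction. Detection used Eu-TK antibody and SA-XL665 in EDTA buffer; activity normalized to DMSO and reference inhibitor, IC50 by logistic fit.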

For orientation: IC50 means the concentration that inhibits the measured activity by half.

Mer (phospho-Mer, MERTK-transfected 293A cells), sequence (Q12866 21-999): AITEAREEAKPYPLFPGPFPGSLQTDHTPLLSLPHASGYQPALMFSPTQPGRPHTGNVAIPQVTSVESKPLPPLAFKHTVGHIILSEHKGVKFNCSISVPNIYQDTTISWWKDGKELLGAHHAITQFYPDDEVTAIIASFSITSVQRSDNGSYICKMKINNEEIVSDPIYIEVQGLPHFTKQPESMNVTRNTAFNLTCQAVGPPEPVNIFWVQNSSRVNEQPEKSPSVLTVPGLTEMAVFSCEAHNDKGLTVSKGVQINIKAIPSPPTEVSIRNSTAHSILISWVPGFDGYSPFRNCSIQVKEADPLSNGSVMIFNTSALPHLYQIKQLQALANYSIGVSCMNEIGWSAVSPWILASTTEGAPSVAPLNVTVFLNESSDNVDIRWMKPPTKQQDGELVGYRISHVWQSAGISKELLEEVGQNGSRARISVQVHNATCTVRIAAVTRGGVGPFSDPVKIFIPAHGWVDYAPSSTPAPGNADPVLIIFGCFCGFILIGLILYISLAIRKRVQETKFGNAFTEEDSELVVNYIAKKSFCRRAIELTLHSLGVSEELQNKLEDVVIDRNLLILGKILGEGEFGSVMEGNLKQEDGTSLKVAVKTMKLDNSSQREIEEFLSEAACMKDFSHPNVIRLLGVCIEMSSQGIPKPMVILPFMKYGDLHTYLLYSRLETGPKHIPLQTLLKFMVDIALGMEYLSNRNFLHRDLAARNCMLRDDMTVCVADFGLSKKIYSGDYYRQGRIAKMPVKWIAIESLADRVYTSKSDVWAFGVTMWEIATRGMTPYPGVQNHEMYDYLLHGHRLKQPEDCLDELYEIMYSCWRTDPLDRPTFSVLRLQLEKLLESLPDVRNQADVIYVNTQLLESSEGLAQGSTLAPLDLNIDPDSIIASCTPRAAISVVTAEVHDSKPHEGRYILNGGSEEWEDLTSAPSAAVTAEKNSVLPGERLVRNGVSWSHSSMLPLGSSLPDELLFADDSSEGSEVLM
Human MET (residues 956-1390), sequence (P08581 956-1390): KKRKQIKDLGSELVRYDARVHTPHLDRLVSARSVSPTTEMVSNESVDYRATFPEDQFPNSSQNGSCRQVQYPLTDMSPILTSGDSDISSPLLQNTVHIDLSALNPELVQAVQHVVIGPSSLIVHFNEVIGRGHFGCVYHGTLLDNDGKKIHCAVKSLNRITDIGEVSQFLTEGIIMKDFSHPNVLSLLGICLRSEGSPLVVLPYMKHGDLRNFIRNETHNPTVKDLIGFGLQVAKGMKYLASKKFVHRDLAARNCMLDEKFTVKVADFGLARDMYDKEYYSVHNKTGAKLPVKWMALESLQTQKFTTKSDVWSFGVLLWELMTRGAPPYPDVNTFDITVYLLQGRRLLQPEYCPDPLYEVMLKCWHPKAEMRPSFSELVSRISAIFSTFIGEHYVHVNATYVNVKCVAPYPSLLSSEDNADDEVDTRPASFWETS
KDR (phospho-KDR, VEGF165-stimulated HUVEC cells), sequence (P35968 20-1356): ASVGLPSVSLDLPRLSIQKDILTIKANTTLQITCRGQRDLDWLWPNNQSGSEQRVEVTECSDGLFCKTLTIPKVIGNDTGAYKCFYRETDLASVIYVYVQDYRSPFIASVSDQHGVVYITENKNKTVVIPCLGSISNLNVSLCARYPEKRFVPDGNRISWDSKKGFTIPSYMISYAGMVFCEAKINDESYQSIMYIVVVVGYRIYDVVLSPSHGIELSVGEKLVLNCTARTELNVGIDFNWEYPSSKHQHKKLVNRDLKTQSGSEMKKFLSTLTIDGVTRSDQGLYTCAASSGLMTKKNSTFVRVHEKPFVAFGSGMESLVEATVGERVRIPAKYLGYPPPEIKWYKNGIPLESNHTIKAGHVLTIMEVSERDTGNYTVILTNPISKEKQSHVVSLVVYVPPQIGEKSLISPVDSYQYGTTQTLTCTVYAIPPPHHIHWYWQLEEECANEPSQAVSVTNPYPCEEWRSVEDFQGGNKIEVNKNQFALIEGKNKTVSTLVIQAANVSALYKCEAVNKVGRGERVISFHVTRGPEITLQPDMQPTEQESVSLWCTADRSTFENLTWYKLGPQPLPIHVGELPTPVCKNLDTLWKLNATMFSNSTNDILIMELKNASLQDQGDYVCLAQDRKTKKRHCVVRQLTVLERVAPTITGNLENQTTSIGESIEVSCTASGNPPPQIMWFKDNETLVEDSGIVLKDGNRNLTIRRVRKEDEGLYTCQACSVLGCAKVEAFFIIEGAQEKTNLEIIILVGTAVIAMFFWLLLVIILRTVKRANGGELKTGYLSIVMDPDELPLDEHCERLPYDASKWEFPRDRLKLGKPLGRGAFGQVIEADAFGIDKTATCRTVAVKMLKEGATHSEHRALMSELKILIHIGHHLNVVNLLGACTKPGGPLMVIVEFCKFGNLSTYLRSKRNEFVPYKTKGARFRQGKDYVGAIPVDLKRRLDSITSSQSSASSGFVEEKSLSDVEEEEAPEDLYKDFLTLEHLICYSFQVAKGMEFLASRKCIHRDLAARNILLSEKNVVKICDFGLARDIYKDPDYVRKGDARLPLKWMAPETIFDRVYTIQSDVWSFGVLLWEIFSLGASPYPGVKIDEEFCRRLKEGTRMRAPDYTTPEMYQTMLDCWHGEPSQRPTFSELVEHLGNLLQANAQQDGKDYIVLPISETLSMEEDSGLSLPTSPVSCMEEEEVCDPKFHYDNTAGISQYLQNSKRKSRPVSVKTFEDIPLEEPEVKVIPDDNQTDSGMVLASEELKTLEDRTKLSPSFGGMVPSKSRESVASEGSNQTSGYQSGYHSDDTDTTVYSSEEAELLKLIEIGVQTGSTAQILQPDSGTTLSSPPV
Human KDR (residues 790-1356), sequence (P35968 790-1356): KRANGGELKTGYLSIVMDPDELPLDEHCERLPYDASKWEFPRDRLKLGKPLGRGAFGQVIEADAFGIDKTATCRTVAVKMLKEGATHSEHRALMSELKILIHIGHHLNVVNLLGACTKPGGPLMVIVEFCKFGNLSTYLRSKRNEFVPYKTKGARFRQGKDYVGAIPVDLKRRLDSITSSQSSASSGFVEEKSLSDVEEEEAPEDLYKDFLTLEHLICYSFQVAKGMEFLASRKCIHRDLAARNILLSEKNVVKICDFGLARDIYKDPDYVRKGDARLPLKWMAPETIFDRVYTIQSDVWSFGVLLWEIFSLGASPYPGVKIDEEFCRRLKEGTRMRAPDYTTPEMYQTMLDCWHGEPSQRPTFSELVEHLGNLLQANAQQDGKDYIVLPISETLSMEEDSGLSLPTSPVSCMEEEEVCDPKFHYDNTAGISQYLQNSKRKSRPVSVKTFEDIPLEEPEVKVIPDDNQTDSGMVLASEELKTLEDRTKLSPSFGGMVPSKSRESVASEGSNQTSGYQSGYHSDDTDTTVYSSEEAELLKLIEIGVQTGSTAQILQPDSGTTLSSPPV

With `CCc1nc(C)c(-c2ccc(F)cc2)c(O)c1C(=O)Nc1ccc(Oc2ccnc3ccc(OC)nc23)c(F)c1` [Compound 182, 2-Ethyl-N-[3-fluoro-4-[(6-methoxy-1,5-naphthyridin-4-yl)oxy]phenyl]-5-(4-fluorophenyl)-4-hydroxy-6-methylpyridine-3-carboxamide], the IC50 is below 100 nM in assay [1], below 100 nM in assay [2], below 100 nM in assay [3] and 100 to 300 nM in assay [4].
For the molecule `COc1ccc2nccc(Oc3ccc(NC(=O)c4cn(C)c(C)c(-c5ccc(F)cc5C)c4=O)cc3F)c2n1` [Compound 183, N-[3-Fluoro-4-[(6-methoxy-1,5-naphthyridin-4-yl)oxy]phenyl]-5-(4-fluoro-2-methylphenyl)-1,6-dimethyl-4-oxopyridine-3-carboxamide], the concentration for half-maximal inhibition (IC50) in assay [1] is below 100 nM; in assay [2], below 100 nM; in assay [3], above 300 nM; in assay [4], above 300 nM.
For the molecule `COCc1nc(C)c(-c2ccc(F)cc2)c(O)c1C(=O)Nc1ccc(Oc2ccnc3cc(OC)c(OC)nc23)c(F)c1` [Compound 184, N-[4-[(6,7-Dimethoxy-1,5-naphthyridin-4-yl)oxy]-3-fluorophenyl]-5-(4-fluorophenyl)-4-hydroxy-2-(methoxymethyl)-6-methylpyridine-3-carboxamide], the IC50 in assay [1], in assay [2], in assay [3] and in assay [4] was below 100 nM in each case.
Turning to `COCc1nc(C)c(-c2ccc(F)cc2)c(O)c1C(=O)Nc1ccc(Oc2ccnc3cc(OC)cnc23)cc1` [Compound 185, 5-(4-Fluorophenyl)-4-hydroxy-2-(methoxymethyl)-N-[4-[(7-methoxy-1,5-naphthyridin-4-yl)oxy]phenyl]-6-methylpyridine-3-carboxamide], the IC50 in assay [1], in assay [2], in assay [3] and in assay [4] was below 100 nM throughout.
On to `COCc1nc(C)c(-c2ccc(F)cc2)c(O)c1C(=O)Nc1ccc(Oc2ccnc3cc(OC)cnc23)c(F)c1` [Compound 186, N-[3-Fluoro-4-[(7-methoxy-1,5-naphthyridin-4-yl)oxy]phenyl]-5-(4-fluorophenyl)-4-hydroxy-2-(methoxymethyl)-6-methylpyridine-3-carboxamide], for which the IC50 in assay [1], in assay [2], in assay [3] and in assay [4] was below 100 nM throughout.
As to `CCc1nc(C)c(-c2ccc(F)cc2)c(O)c1C(=O)Nc1ccc(Oc2ccnc3cc(OC)cnc23)cc1` [Compound 188, 2-Ethyl-5-(4-fluorophenyl)-4-hydroxy-N-[4-[(7-methoxy-1,5-naphthyridin-4-yl)oxy]phenyl]-6-methylpyridine-3-carboxamide], the IC50 in assay [1], in assay [2], in assay [3] and in assay [4] was below 100 nM throughout.
Consider `COCc1nc(C)c(-c2ccc(F)cc2)c(O)c1C(=O)Nc1ccc(Oc2ccnc3ccc(OC)nc23)c(F)c1` [Compound 189, N-[3-Fluoro-4-[(6-methoxy-1,5-naphthyridin-4-yl)oxy]phenyl]-5-(4-fluorophenyl)-4-hydroxy-2-(methoxymethyl)-6-methylpyridine-3-carboxamide], for which the IC50 in assay [1] is below 100 nM; in assay [2], below 100 nM; in assay [3], below 100 nM; in assay [4], 100 to 300 nM.
Consider `COCc1nc(C)c(-c2ccc(F)cc2)c(O)c1C(=O)Nc1ccc(Oc2ccnc3cc(OC)c(OC)nc23)cc1` [Compound 190, N-[4-[(6,7-Dimethoxy-1,5-naphthyridin-4-yl)oxy]phenyl]-5-(4-fluorophenyl)-4-hydroxy-2-(methoxymethyl)-6-methylpyridine-3-carboxamide], for which the concentration for half-maximal inhibition (IC50) in assay [1], in assay [2], in assay [3] and in assay [4] was below 100 nM each time.
`COCc1nc(C)c(-c2ccc(F)cc2C)c(O)c1C(=O)Nc1ccc(Oc2ccnc3cc(OC)c(OC)nc23)c(F)c1` [Compound 191, N-[4-[(6,7-Dimethoxy-1,5-naphthyridin-4-yl)oxy]-3-fluorophenyl]-5-(4-fluoro-2-methylphenyl)-4-hydroxy-2-(methoxymethyl)-6-methylpyridine-3-carboxamide]: the half-inhibitory concentration (IC50) in assay [1], in assay [2], in assay [3] and in assay [4] was below 100 nM throughout.
With `COCc1nc(C)c(-c2ccc(F)cc2C)c(O)c1C(=O)Nc1ccc(Oc2ccnc3cc(OC)c(OC)nc23)cc1` [Compound 192, N-[4-[(6,7-Dimethoxy-1,5-naphthyridin-4-yl)oxy]phenyl]-5-(4-fluoro-2-methylphenyl)-4-hydroxy-2-(methoxymethyl)-6-methylpyridine-3-carboxamide], the half-maximal inhibitory concentration (IC50) in assay [1], in assay [2], in assay [3] and in assay [4] was below 100 nM in each case.
`COCc1nc(C)c(-c2ccc(F)cc2C)c(O)c1C(=O)Nc1ccc(Oc2ccnc3cc(OC)cnc23)c(F)c1` [Compound 193, N-[3-Fluoro-4-[(7-methoxy-1,5-naphthyridin-4-yl)oxy]phenyl]-5-(4-fluoro-2-methylphenyl)-4-hydroxy-2-(methoxymethyl)-6-methylpyridine-3-carboxamide]: the IC50 in assay [1] is below 100 nM; in assay [2] it was below 100 nM; in assay [3] it was below 100 nM; in assay [4], 100 to 300 nM.
Take `COCc1nc(C)c(-c2ccc(F)cc2C)c(O)c1C(=O)Nc1ccc(Oc2ccnc3cc(OC)cnc23)cc1` [Compound 194, 5-(4-Fluoro-2-methylphenyl)-4-hydroxy-2-(methoxymethyl)-N-[4-[(7-methoxy-1,5-naphthyridin-4-yl)oxy]phenyl]-6-methylpyridine-3-carboxamide]: the IC50 in assay [1] was below 100 nM; in assay [2], below 100 nM; in assay [3], below 100 nM; in assay [4] it was 100 to 300 nM.
`COCc1nc(C)c(-c2ccc(F)cc2C)c(O)c1C(=O)Nc1ccc(Oc2ccnc3ccc(OC)nc23)c(F)c1` [Compound 195, N-[3-Fluoro-4-[(6-methoxy-1,5-naphthyridin-4-yl)oxy]phenyl]-5-(4-fluoro-2-methylphenyl)-4-hydroxy-2-(methoxymethyl)-6-methylpyridine-3-carboxamide]: the half-maximal inhibitory concentration (IC50) in assay [1] is 100 to 300 nM; in assay [2] it was below 100 nM; in assay [3], below 100 nM; in assay [4], above 300 nM.
For the molecule `COc1cc2nccc(Oc3ccc(NC(=O)c4cn(C)c(C)c(-c5ccc(F)cc5C)c4=O)cc3)c2nc1OC` [Compound 196, N-[4-[(6,7-Dimethoxy-1,5-naphthyridin-4-yl)oxy]phenyl]-5-(4-fluoro-2-methylphenyl)-1,6-dimethyl-4-oxopyridine-3-carboxamide], the IC50 in assay [1] is below 100 nM; in assay [2], below 100 nM; in assay [3], below 100 nM; in assay [4], 100 to 300 nM.
For `CCc1nc(C)c(-c2ccc(F)cc2)c(O)c1C(=O)Nc1ccc(Oc2ccnc3cc(OC)c(OC)nc23)cc1` [Compound 197, N-[4-[(6,7-Dimethoxy-1,5-naphthyridin-4-yl)oxy]phenyl]-2-ethyl-5-(4-fluorophenyl)-4-hydroxy-6-methylpyridine-3-carboxamide], the half-inhibitory concentration (IC50) in assay [1], in assay [2], in assay [3] and in assay [4] was below 100 nM each time.
For the molecule `COCCOc1nc2c(Oc3ccc(NC(=O)c4cn(C)c(C)c(-c5ccc(F)cc5)c4=O)cc3F)ccnc2cc1OC` [Compound 198, N-[3-Fluoro-4-[[7-methoxy-6-(2-methoxyethoxy)-1,5-naphthyridin-4-yl]oxy]phenyl]-5-(4-fluorophenyl)-1,6-dimethyl-4-oxopyridine-3-carboxamide], the IC50 in assay [1] is below 100 nM; in assay [2], below 100 nM; in assay [3], below 100 nM; in assay [4] it was 100 to 300 nM.
`COCCOc1nc2c(Oc3ccc(NC(=O)c4c(COC)nc(C)c(-c5ccc(F)cc5)c4O)cc3F)ccnc2cc1OC` [Compound 199, N-[3-Fluoro-4-[[7-methoxy-6-(2-methoxyethoxy)-1,5-naphthyridin-4-yl]oxy]phenyl]-5-(4-fluorophenyl)-4-hydroxy-2-(methoxymethyl)-6-methylpyridine-3-carboxamide]: the IC50 in assay [1], in assay [2], in assay [3] and in assay [4] was below 100 nM throughout.
